Reference: patent US11981695B2, “Linoleic acid derivatives, pharmaceutical composition or food composition comprising said linoleic acid derivatives, and their uses” (UNIVERSITÉ DE BOURGOGNE, priority 2018, dated 2024)
Entries after “also recorded” stand apart in the source; their conditions may differ. Values belong to the compound of their own block, whether it stands above or below them.

How the values were obtained:
mice (C57Bl/6 black) = assay: Two-bottle preference test; format: in vivo, mouse; settings: for preference versus control solution (xanthan gum) / effect on palatability of a sucrose-containing solution / preferred (optimal) concentration in two-bottle preference test: 12 h; for preference versus control solution (xanthan gum): 0.3% xanthan gum, test compound 10 to 200 μM or linoleic acid 0.2% (v/v); for ratio of LA preferred concentration to that of test compound: LA preferred at 7.13 mM or 0.2%; for effect on palatability of a sucrose-containing solution: sucrose versus sucrose plus test compound 50 μM; for preferred (optimal) concentration in two-bottle preference test: versus xanthan gum
Experimental: Eight weeks old, male mice (C57Bl/6 black) were purchased from the Janvier Elevage (Le Mans) and used for these experiments.
The mice are placed individually in cages in a controlled environment (humidity and constant temperature) and have free access to a standard diet. 6 hours before the tests, the mice are deprived of water.
During the behavioral experiments, the mice were offered two bottles simultaneously for 12 hours (night period).
The mice are subjected to a choice between the “control” solution and the experimental solution.
Experiment 1 (FIG. 5, FIG. 6A, FIG. 7) • control solutions contain 0.3% xanthan gum, w/v, (Sigma Life Science, USA) in water to reproduce lipid texture and minimize bias due to differences in appearance between the two bottles; • the experimental solution contains, in addition to xanthan gum, 0.3% (w/v), either the “test compound” according to the invention at a concentration varying from 10 to 200 μM (NKS-3, FIG. 6A or NKS-5, FIG. 7) or linoleic acid at 0.2% (v/v) (control test, FIG. 5). To avoid the preference for one side, the position of each bottle is changed during each test.
Experiment 2 (FIG. 6B and FIG. 8): gustatory properties • control solutions contain 2% of sucrose (w/v); • the experimental solution contains, in addition to sucrose (2% w/v), the “test compound” according to the invention (NKS-3, FIG. 6B or NKS-5, FIG. 8) at a concentration of 50 μM.
To estimate the consumption of control and experimental solutions, the bottles are weighed before and after each experiment. The mice are allowed to take rest for 48 hours between each experiment.

mouse taste bud cells = assay: Ca2+ signaling (Fura-2/AM, F340/F380) in mouse taste bud cells; format: cell-based; settings: for EC50: 0 to 200 μM, Δ ratio F340/F380, n=6, read-out: EC50 of dose-dependent increases in [Ca2+]i
Experimental: Briefly, lingual epithelium was separated by enzymatic dissociation which contained the following: elastase and dispase mixture, 2 mg/ml each, in Tyrode's buffer (120 mM NaCl; 5 mM KCl; 10 mM HEPES ((4-(2-hydroxyethyl)-1-piperazineethanesulfonic acid); 1 mM CaCl2; 1 mM MgCl2; 10 mM glucose; 10 mM Na pyruvate, pH 7.4). The taste bud cells were isolated by incubating lingual epithelium in RPMI 1640 medium containing 2 mM EDTA, 1.2 mg/ml elastase, 0.6 mg/ml collagenase (type 1), and 0.6 mg/ml trypsin inhibitor at 37° C. for 10 minutes, followed by centrifugation (600 g, 10 minutes). The cell populations, after separation, were suspended in fresh RPMI 1640 medium containing 10% fetal calf serum, 200 U/ml penicillin, and 0.2 mg/ml streptomycin, seeded onto a Poly-D-Lysine-coated dishes, and cultured for 24 hours. At the end of this period, the cells were used for the experiments or stained with trypan blue to assess their viability.
(§1) The mouse taste bud cells were seeded in 24-well plates (with glass bottom), containing poly-D-lysine for better adhesion to the surface. After 24 h, taste cells were incubated for 45 minutes with a fluorescent probe, Fura-2/AM (1 μM) in calcium buffer (110 mM NaCl, 5.4 mM, KCl, 25 mM, NaHCO3, 0.8 mM, MgCl2, 0.4 mM, KH2PO4, 20 mM, Hepes-Na, 0.33 mM, NaHPO4, 1.2 mM, CaCl2, pH 7.4). Then, the cells are washed with phosphate buffer saline (PBS) and taken up in calcium buffer.
(§2) The changes in intracellular Ca^2+ (F340/F380) were monitored under a Nikon microscope (TiU) by using an S Fluor 40× oil immersion objective.
(§3) Especially, the increases in [Ca^2+ ]i were measured as follows: the mice taste bud cells were cultured on Willico-Dish wells with a glass bottom and loaded with a fluorescent probe, Fura-2/AM. The changes in intracellular Ca^2+ (F340/F380) were monitored under the Nikon microscope (TiU) by using S-fluor 40× oil immersion objective. The planes were taken at Z intervals of 0.3 μm, and NIS-Elements software was used to deconvolve the images. The microscope was equipped with EM-CCD (Lucas) camera for real time recording of 16-bit digital images. The dual excitation fluorescence imaging system was used for studies of individual cells. The changes in intracellular Ca^2+ were expressed as ΔRatio, which was calculated as the difference between the peak F340/F380 ratio. The data were summarized from the large number of individual cells (20-40 cells in a single run, with 3-9 identical experiments done in at least three cell preparations). The results were analyzed with the NIS-elements software, the variation in [Ca^2+]i is expressed as Δ ratio (F340/F380 which was calculated with the difference of spectra at two wavelengths, i.e., 340 nm and 380 nm.

CD36 = molecular target: T1, CD36 (Mus musculus, UniProt Q08857); assay: Ca2+ signaling in mouse taste bud cells in presence or absence of CD36 inhibitor SSO; format: cell-based; settings: for action of CD36 inhibitor SSO on the increase in [Ca2+]i: 20 μM SSO, mouse taste bud cells; for CD36 agonist character: judged from suppression by SSO
T1 construct: freshly isolated and primary cultured mice type II taste bud cells (expressing GPR120 and CD36) are used; endogenous in cells; host or cells: primary mouse taste bud cells from fungiform papillae
T1 sequence (Q08857 whole entry): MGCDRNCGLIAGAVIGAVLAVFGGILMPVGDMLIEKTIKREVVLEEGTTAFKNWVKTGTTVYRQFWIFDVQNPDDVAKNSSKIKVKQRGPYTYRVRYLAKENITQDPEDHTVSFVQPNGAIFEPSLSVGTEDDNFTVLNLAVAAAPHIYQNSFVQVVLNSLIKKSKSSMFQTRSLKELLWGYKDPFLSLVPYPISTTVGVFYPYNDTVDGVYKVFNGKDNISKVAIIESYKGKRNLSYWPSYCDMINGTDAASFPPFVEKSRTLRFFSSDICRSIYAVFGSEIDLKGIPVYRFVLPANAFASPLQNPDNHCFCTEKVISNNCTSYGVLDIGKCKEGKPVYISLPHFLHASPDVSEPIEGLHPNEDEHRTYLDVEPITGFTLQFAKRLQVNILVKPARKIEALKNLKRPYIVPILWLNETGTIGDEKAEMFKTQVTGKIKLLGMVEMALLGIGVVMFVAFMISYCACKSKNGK
Experimental: as §1, §2, §3
CD36: in order to assess if the linoleic acid derivatives according to the invention exert their actions via CD36, sulfo-N-succinimidyl oleate (SSO) was used. SSO is a CD36 inhibitor/blocker/antagonist.
Experiments were performed in the presence or absence of SSO with respect to calcium signaling to verify whether our analogs act well via this lipid receptor. Especially, for this assay, NKS-3, NKS-5 and linoleic acid (control) were tested.

obese C57BL/6J mice [1] = assay: Blood biochemical parameters in diet-induced obese mice (ELISA, automatic analyzer); format: in vivo, mouse; settings: obese animals
Experimental: (§4) C57BL/6J male mice, aged between 6 to 10 weeks (16-20 g), were obtained from Janvier Labs (France). They were housed individually in a controlled environment with a 12 h light/dark cycle with food (SAFE, France) and water ad libitum. The palm oil (Huilerie Vigean, France) was the main fat component in high-fat diets. The high-fat diet was prepared weekly and stored at 4° C. until further use. The study was conducted as per Declaration of Helsinki and European ethical guidelines for the care and use of animals for experimentation. All the experimental protocols (protocol number: 16158) were approved by the Regional Ethical Committee of the University of Burgundy (Dijon, France).
(§5) The mice were grouped at random (n=10/group) and fed with either of the following diets: standard diet (STD) or high-fat diet (HFD). The body weight, food, and water intake were measured, weekly.
(§6) After 10 weeks of feeding the diets, obese animals were divided into two groups: one groups continued to be fed on the same HFD; however, another group was fed on the same diet and received either NKS-3 or NKS-5) until 28th of weeks of experimentation. At the end, the animals were sacrificed, under a fasting condition, and used for different analysis in blood and different tissues.
The rat/mouse insulin ELISA kit was obtained from EMD Millipore (USA). ELISA kits for CCK, PYY and GLP-1 were purchased from Cloud-Clone Corp. (USA). The ALAT (Alanine Amino Transferase) was determined by an automatic analyzer (Gilford Model 2000 system, a Beckman System T.R).

C57BL/6J mice = assay: Liver histology in normal diet or HFD fed mice; format: in vivo, mouse; settings: for liver steatosis in liver sections of obese mice: HFD
Experimental: as §4, §5, §6
The liver of the mice at the time of sacrifice were fixed in formaldehyde and then dehydrated by passaging into ethanoic media. The liver tissues were embedded into the paraffin and 5μ thick section were cut by the microtome as per standard procedures. The slides, containing tissues, were stained by hematoxylin and eosin dyes as per standard methods. The stained slides were observed under Zeiss light microscope at 10× or 20× magnifications.

obese C57BL/6J mice [2] = assay: Diet-induced obesity, body weight; format: in vivo, mouse; settings: for body weight in obese mice: HFD, analogues in feeder bottles from 10th to 28th week, NKS-5 75 μM, NKS-3 50 μM; for body weight of control animals: normal diet
Experimental: as §4, §5, §6
In order to elucidate the beneficial effects and especially during obesity, experiments were conducted on obese C57BL/6J mice. […] In order to test the curative/interventional effects on obesity, the animals were divided into two groups: one group that consume only the high-fat diet (HFD) and the other consuming the same diet and also receiving NKS-3 or NKS-5 in adlibitum baby bottles/feeders. From the 10th week of the diet, lipid analogues were introduced into the bottles at concentrations that corresponded to their preference in the double choice test (NKS-5 at 75 μM; NKS-3 at 50 μM). […] In addition, the decrease in obesity was maintained until the 28th week of feeding a HFD (FIGS. 13A and 13B).

GPR120 = molecular target: T2, GPR120 (Mus musculus, UniProt Q7TMA4); assay: Ca2+ signaling in mouse taste bud cells in presence or absence of GPR120 antagonist AH7614; format: cell-based; settings: AH7614 20 μM, NKS-5 50 μM
T2 construct: freshly isolated and primary cultured mice type II taste bud cells (expressing GPR120 and CD36) are used; endogenous in cells; host or cells: primary mouse taste bud cells from fungiform papillae
T2 sequence (Q7TMA4 1-361): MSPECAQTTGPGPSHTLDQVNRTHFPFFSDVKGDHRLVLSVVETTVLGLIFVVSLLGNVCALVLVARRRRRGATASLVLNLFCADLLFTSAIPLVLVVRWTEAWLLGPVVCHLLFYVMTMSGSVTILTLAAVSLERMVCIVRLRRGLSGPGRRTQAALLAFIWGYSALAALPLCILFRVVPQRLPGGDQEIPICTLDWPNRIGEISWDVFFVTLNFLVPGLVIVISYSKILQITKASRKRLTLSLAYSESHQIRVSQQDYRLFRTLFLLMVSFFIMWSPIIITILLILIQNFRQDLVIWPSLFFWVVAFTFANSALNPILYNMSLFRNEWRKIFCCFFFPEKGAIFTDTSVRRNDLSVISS
Experimental: as §1, §2
as §3, with “The planes were taken at Z intervals of 0.3 μm, and NIS-Elements software was used to deconvolve the images. The microscope was equipped with EM-CCD (Lucas) camera for real time recording of 16-bit digital images.” left out, “The data were summarized from the large number of individual cells (20-40 cells in a single run, with 3-9 identical experiments done in at least three cell preparations).” left out, “nm. […]” for “nm.”

SMILES: CCCCC/C=C\C/C=C\CCCCCCCC(=O)O [Linoleic acid, linoleic acid]
- preference versus control solution (xanthan gum) (mice (C57Bl/6 black); mice): strong preference
- concentration preferred in two-bottle preference test (mice (C57Bl/6 black); mice, 7.13 mM or 0.2%): 7.13 mM
- increase in [Ca2+]i (mouse taste bud cells): huge increase
- action of CD36 inhibitor SSO on the increase in [Ca2+]i (CD36; listed as LA): completely blocked; also recorded: suppressed

SMILES: CCCCC/C=C\C/C=C\CCCCCCCCP(=O)(OCC)OCC [NKS-3, diethyl (9Z,12Z)-octadeca-9,12-dien-1-ylphosphonate]
- ratio of LA preferred concentration to that of test compound (mice (C57Bl/6 black)): 140 times
- preference versus control solution (xanthan gum) (mice (C57Bl/6 black); mice): spontaneous preference
- effect on palatability of a sucrose-containing solution (mice (C57Bl/6 black); mice): failed to enhance the palatability
- preferred (optimal) concentration in two-bottle preference test (mice (C57Bl/6 black); mice): 50 µM
- blood concentration of ALAT (obese C57BL/6J mice [1]): decreased
- circulating concentrations of IL-6 (obese C57BL/6J mice [1]): decrease
- insulin concentrations (obese C57BL/6J mice [1]): decreases
- liver steatosis in liver sections of obese mice (C57BL/6J mice): curative effects
- liver histology, normal diet fed mice (C57BL/6J mice): did not exert any effect
- increase in [Ca2+]i (mouse taste bud cells): very rapid
- EC50 (mouse taste bud cells): 25 ± 0.01 µM
- action of CD36 inhibitor SSO on the increase in [Ca2+]i (CD36): completely blocked; also recorded: completely suppressed
- CD36 agonist character (CD36): complete CD36 agonist
- body weight in obese mice (obese C57BL/6J mice [2]): significant decrease in body weight
- body weight of control animals (obese C57BL/6J mice [2]): no effect

- liver histology, normal diet fed mice (C57BL/6J mice): did not exert any effect
- EC50 (mouse taste bud cells): 30 ± 0.01 µM
- CD36 agonist character (CD36): partial agonist
SMILES: CCCCC/C=C\C/C=C\CCCCCCCC(=O)OCC1(C)COC1 [NKS-5, (9Z,12Z)-(3-methyloxetan-3-yl)methyl octadeca-9,12-dienoate]
- ratio of LA preferred concentration to that of test compound (mice (C57Bl/6 black)): 93 times
- preference versus control solution (xanthan gum) (mice (C57Bl/6 black); mice): spontaneous preference
- effect on palatability of a sucrose-containing solution (mice (C57Bl/6 black); mice): increases the palatability
- preferred (optimal) concentration in two-bottle preference test (mice (C57Bl/6 black); mice): 75 µM
- effect of GPR120 inhibitor AH7614 on the increase in [Ca2+]i (GPR120): significantly curtailed, but not suppressed
- blood concentration of ALAT (obese C57BL/6J mice [1]): decreased
- circulating concentrations of IL-6 (obese C57BL/6J mice [1]): decrease
- insulin concentrations (obese C57BL/6J mice [1]): decreases
- liver steatosis in liver sections of obese mice (C57BL/6J mice): curative effects
- increase in [Ca2+]i (mouse taste bud cells): very rapid
- action of CD36 inhibitor SSO on the increase in [Ca2+]i (CD36): partially inhibited; also recorded: curtailed, but not completely suppressed
- body weight in obese mice (obese C57BL/6J mice [2]): significant decrease in body weight
- body weight of control animals (obese C57BL/6J mice [2]): no effect
